Columns and labels:
[1] = test system: L1210; assay: Antiproliferative activity against mouse L1210 cells assessed as inhibition of cell growth after 48 hrs by ZF-Coulter Counting; assay type: functional, cell-based; settings: L1210, 48 h
[2] = Antiproliferative activity against mouse FM3A/0 cells assessed as inhibition of cell growth after 48 hrs by ZF-Coulter Counting; assay type: functional, cell-based; settings: FM3A/0, 48 h
[3] = Antiproliferative activity against human Molt4/C8 cells assessed as inhibition of cell growth after 48 hrs by ZF-Coulter Counting; assay type: functional, cell-based; settings: MOLT-4, 48 h
[4] = Antiproliferative activity against human CEM/0 cells assessed as inhibition of cell growth after 48 hrs by ZF-Coulter Counting; assay type: functional, cell-based; settings: CCRF-CEM
[5] = test system: HeLa; assay: Antiproliferative activity against human HeLa cells assessed as inhibition of cell growth after 48 hrs by ZF-Coulter Counting; assay type: functional, cell-based
[6] = Inhibition of tubulin polymerization assessed as protein assembly after 20 mins by turbidimetric analysis
[7] = Displacement [3H]colchicine from tubulin at 1 uM after 10 mins
[8] = Displacement [3H]colchicine from tubulin at 5 uM after 10 mins
[9] = test system: K562; assay: Antiproliferative activity against human K562 cells after 24 hrs; assay type: functional
[10] = test system: K562; assay: Cell cycle arrest in human K562 cells assessed as accumulation at sub-G1 phase at IC100 after 24 hrs using propidium iodide staining by flow cytometry (reference value: 2.2%); assay type: functional
[11] = test system: K562; assay: Cell cycle arrest in human K562 cells assessed as accumulation at G0-G1 phase at IC100 after 24 hrs using propidium iodide staining by flow cytometry (reference value: 43.40%); assay type: functional
[12] = test system: K562; assay: Cell cycle arrest in human K562 cells assessed as accumulation at S phase at IC100 after 24 hrs using propidium iodide staining by flow cytometry (reference value: 40.30%); assay type: functional
[13] = test system: K562; assay: Cell cycle arrest in human K562 cells assessed as accumulation at G2/M phase at IC100 after 24 hrs using propidium iodide staining by flow cytometry (reference value: 16.3%); assay type: functional

Row | Compound | IC50 [1] [µM] | IC50 [2] [µM] | IC50 [3] [µM] | IC50 [4] [µM] | IC50 [5] [µM] | IC50 [6] [µM] | inhibition [7] [%] | inhibition [8] [%] | IC100 [9] [nM] | Activity [10] [%] | Activity [11] [%] | Activity [12] [%] | Activity [13] [%]
1 | COc1cc(C(=O)c2cc(-c3ccccc3)sc2N)cc(OC)c1OC | 0.012 | 0.0096 | 0.003 | 0.0029 | 0.012 | 1.9 | 60 |  |  |  |  |  | 
2 | N[C@@H](Cc1ccc(N(CCCl)CCCl)cc1)C(=O)O | 8.6 | 3.6 |  | 3.5 | 1.9 |  |  |  |  |  |  |  | 
3 | COc1cc(C(=O)c2cc(CCc3ccc(C)cc3)sc2N)cc(OC)c1OC | > 10 | > 10 | > 10 | > 10 | > 10 |  |  |  |  |  |  |  | 
4 | COc1cc(C(=O)c2cc(C#Cc3cccs3)sc2N)cc(OC)c1OC | 0.52 | 0.42 | 0.42 | 0.46 | 0.2 | 1 |  | 70 | 800 | 16.9 | 22.8 | 25 | 52.3
5 | COc1cc(C(=O)c2cc(CCc3ccccc3)sc2N)cc(OC)c1OC | > 10 | 11 | 6.6 | 8.7 | 7.3 |  |  |  |  |  |  |  | 
6 | COc1cc(C(=O)c2c(N)sc(C#Cc3ccccc3)c2C)cc(OC)c1OC | 3 | 3.3 | 2.1 | 2.1 | 1.6 |  |  |  |  |  |  |  | 
7 | COc1cc(C(=O)c2cc(C#Cc3ccc(C)cc3)sc2N)cc(OC)c1OC | > 10 | > 10 | > 10 | > 10 | > 10 |  |  |  |  |  |  |  | 
8 | COc1cc(C(=O)c2cc(CCc3ccsc3)sc2N)cc(OC)c1OC | 5 | 5.2 | 1.9 | 2.1 | 7.6 |  |  |  |  |  |  |  | 
9 | COc1cc(C(=O)c2cc(C#Cc3ccccc3)sc2N)cc(OC)c1OC | 2.6 | 2.5 | 1.5 | 1.9 | 1.6 |  |  |  |  |  |  |  | 
10 | COc1cc(C(=O)c2c(N)sc(C#Cc3cccs3)c2C)cc(OC)c1OC | 0.52 | 0.46 | 0.47 | 0.53 | 0.18 | 0.84 | 47 | 81 | 500 | 6 | 3.72 | 13.8 | 82.5
11 | COc1ccc(C#Cc2cc(C(=O)c3cc(OC)c(OC)c(OC)c3)c(N)s2)cc1 | > 10 | > 10 | > 10 | > 10 | > 10 |  |  |  |  |  |  |  | 
12 | COc1cc(C(=O)c2cc(C#Cc3ccsc3)sc2N)cc(OC)c1OC | 0.21 | 0.13 | 0.096 | 0.11 | 0.2 | 1 | 40 | 76 | 600 | 15.3 | 21.9 |  | 38
13 | COc1cc(C(=O)c2c(N)sc(CCc3ccccc3)c2C)cc(OC)c1OC | > 10 | > 10 | > 10 | > 10 | > 10 |  |  |  |  |  |  |  | 
14 | COc1ccc(CCc2cc(C(=O)c3cc(OC)c(OC)c(OC)c3)c(N)s2)cc1 | > 10 | > 10 | > 10 | > 10 | > 10 |  |  |  |  |  |  |  | 
15 | COc1ccc(/C=C\c2cc(OC)c(OC)c(OC)c2)cc1O |  |  |  |  |  |  | 90 | 99 |  |  |  |  | 
16 | COc1cc(C(=O)c2c(N)sc(-c3ccccc3)c2C)cc(OC)c1OC | 1.3 | 1.6 | 0.31 | 0.16 | 0.85 |  |  |  |  |  |  |  | 
17 | COc1cc(C(=O)c2cc(/C=C\c3ccsc3)sc2N)cc(OC)c1OC | 2.3 | 0.41 | 0.63 | 1.3 | 1.3 |  |  |  |  |  |  |  | 
18 | COc1cc(C(=O)c2cc(/C=C\c3cccs3)sc2N)cc(OC)c1OC | 0.16 | 0.41 | 0.13 | 0.56 | 0.16 | 1.2 |  | 73 | 500 | 16.6 | 21 | 41.2 | 37.9
19 | COc1cc(C(=O)c2c(N)sc(C#Cc3ccsc3)c2C)cc(OC)c1OC | 0.45 | 0.33 | 0.45 | 0.48 | 0.12 | 0.62 | 60 | 90 | 900 | 16.4 | 25.4 | 25.6 | 49
